Target: ATP-dependent translocase ABCB1 (Homo sapiens, UniProt P08183)
Assay: TP_TRANSPORTER: binding in plasma membranes from CEM/VLB1.0 cells

Sequence of ATP-dependent translocase ABCB1 (P08183 whole entry): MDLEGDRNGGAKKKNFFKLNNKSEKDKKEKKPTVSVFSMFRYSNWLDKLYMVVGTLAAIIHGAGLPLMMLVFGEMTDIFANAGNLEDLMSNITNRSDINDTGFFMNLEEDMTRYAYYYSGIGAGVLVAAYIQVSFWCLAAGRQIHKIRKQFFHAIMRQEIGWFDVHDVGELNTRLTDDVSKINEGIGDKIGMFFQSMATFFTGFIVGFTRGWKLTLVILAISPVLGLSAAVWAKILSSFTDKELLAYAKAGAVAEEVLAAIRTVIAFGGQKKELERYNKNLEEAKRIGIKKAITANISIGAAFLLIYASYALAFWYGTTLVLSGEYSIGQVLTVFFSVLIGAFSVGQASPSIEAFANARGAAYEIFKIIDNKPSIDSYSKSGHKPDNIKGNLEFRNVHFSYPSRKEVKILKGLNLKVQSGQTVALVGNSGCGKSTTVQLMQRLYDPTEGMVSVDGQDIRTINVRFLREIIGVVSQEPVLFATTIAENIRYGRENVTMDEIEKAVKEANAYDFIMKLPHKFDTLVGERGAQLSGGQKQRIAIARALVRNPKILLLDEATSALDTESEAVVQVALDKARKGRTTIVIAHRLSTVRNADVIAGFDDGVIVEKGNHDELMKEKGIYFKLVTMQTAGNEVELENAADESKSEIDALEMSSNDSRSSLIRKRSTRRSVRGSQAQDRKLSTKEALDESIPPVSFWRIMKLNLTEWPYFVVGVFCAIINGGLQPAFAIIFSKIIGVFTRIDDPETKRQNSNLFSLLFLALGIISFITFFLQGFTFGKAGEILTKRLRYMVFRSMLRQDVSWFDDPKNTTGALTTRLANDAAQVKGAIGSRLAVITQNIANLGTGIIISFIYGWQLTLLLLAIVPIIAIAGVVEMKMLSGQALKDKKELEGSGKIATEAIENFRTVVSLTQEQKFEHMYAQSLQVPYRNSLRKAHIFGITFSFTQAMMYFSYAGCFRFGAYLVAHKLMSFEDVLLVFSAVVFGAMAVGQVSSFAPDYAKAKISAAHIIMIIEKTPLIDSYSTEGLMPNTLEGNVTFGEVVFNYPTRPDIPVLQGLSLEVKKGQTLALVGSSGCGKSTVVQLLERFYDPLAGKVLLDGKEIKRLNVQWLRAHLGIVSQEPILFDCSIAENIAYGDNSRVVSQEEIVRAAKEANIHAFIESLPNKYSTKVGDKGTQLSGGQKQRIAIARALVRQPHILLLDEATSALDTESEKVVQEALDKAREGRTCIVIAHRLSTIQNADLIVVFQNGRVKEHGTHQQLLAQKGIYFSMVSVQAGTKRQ

Kd: 11 nM
SMILES: CC[C@H](C)[C@H]1O[C@]2(CC[C@@H]1C)C[C@@H]1C[C@@H](C/C=C(\C)[C@@H](O[C@H]3C[C@H](OC)[C@@H](O[C@H]4C[C@H](OC)[C@@H](O)[C@H](C)O4)[C@H](C)O3)[C@@H](C)/C=C/C=C3\CO[C@@H]4[C@H](O)C(C)=C[C@@H](C(=O)O1)[C@]34O)O2 [ABAMECTIN]

Reference: BindingDB's records for doi:10.1016/s0006-2952(96)00656-9 (Institute of Parasitology of Mcgill University, 1997)
